Data as given in US20240417400A1, “ARYL HYDROCARBON RECEPTOR (AHR) MODULATORS AND THERAPEUTIC USES THEREOF” (GALILEO BIOSYSTEMS, INC., priority 2021, published 2024).

Tests used:
Assay type in all cases: cell-based
[1] = test system: gene expression biomarkers (CYP1A1, CCL17/TARC, CCL26/Eotaxin-3, Filaggrin) in freshly excised healthy human skin; experiment: Gene expression biomarker activity screen in stimulated human skin explants (RT-qPCR); conditions: 10 μM in media, harvested 24 hours post stimulation
Description: Compound 6 and comparative compound tapinarof are evaluated for their ability to inhibit production of gene expression biomarkers using the biomarkers panel described in the below tables. Each compound is dissolved in DMSO at a dilution volume of 1000× and the resultant solutions are stored at −80° C. Concentrations tested include 1 μM, 5 μM, 10 μM, and 25 μM. Freshly excised healthy human skin is dermatomed to an approximate thickness of 750±100 μm using an Integra® dermatome according to US-SOP-3005 and US-SOP-3006. The dermatomed skin is sectioned into 7 mm biopsies and placed into 6.5 mm permeable membrane Transwell@ inserts with the Stratum corneum side apical and a section of collagen between the basal dermal tissue and the permeable membrane (n=4 per test sample). The Transwell® inserts have an average surface area of approximately 0.33 cm^2 and a volume of 0.5 mL. The basal chambers of the inserts are filled with 0.5 mL of Cornification media and the compound solutions are added to the media to a concentration of 10 μM. The inserts are stored in a humidified incubator overnight at 37° C. for approximately 16 hours. The contents of the basal chambers are vacuum aspirated and replaced with 0.5 mL of pre-warmed (ca. 37° C.) Cornification media containing the compound at a concentration of 10 μM and stimulation cocktail. Tissue explants are harvested at 24 hours post stimulation to measure production of the gene expression biomarkers by quantitative reverse transcription polymerase chain reaction (RT-qPCR). […] The test samples include untreated vehicle (control), TH1 stimulation control, TH2 stimulation control, TH17 stimulation control, tapinarof, and Compound 6.

[2] = test system: human keratinocytes; experiment: Inflammation of human keratinocytes induced by IL-4, IL-13, IL-22 and IFN-γ: CCL2 release and cell viability; conditions: IL-4, IL-13, IL-22 and IFN-γ induced, FIGS. 3A, 3B
Source text: Inflammation of human keratinocytes was induced by IL-4, IL-13, IL-22 and IFN-γ. The cells were exposed to Compound 6 or tapiranof and measured for inhibition of CCL2 release and cell viability. FIG. 3A depicts concentration response curves of inhibition of CCL2 release and cell viability for Compound 6. FIG. 3B depicts concentration response curves of inhibition of CCL2 release and cell viability for tapiranof.

[3] = test system: human keratinocytes; experiment: Inflammation of human keratinocytes induced by IL-17 and IFN-α: IL-8 release and cell viability; conditions: IL-17 and IFN-α induced, FIGS. 4A, 4B
Source text: The cells were exposed to Compound 6 or tapiranof and measured for inhibition of IL-8 release and cell viability. FIG. 4A depicts concentration response curves of inhibition of IL-8 release and cell viability for Compound 6. FIG. 4B depicts concentration response curves of inhibition of IL-8 release and cell viability for tapiranof.

[4] = test system: T-cells; experiment: Inflammation of T-cells induced by CD2, CD3 and CD28: IL-2 and IL-4 release; conditions: at the highest test concentrations, FIGS. 5A, 5B
Source text: Inflammation of T-cells were induced by CD2, CD3, and CD28. The cells were exposed to Compound 6 or tapiranof and measured for inhibition of IL-2 and IL-4 release and cell viability. FIG. 5A depicts concentration response curves of inhibition of IL-2 and IL-4 release and cell viability for Compound 6. FIG. 5B depicts concentration response curves of inhibition of IL-2 and IL-4 release and cell viability for tapiranof.

Row | SMILES | production of CYP1A1 (gene expression) ([1]; FIG. 1A) | production of CCL17/TARC (gene expression) ([1]; FIG. 1B) | production of CCL26/Eotaxin-3 (gene expression) ([1]; FIG. 1C) | production of Filaggrin (gene expression) ([1]; FIG. 1D) | cell viability [2] | inhibition of CCL2 release [2] | inhibition of IL-8 release [3] | inhibition of IL-2 release [4] | inhibition of IL-4 release [4]
1 | O=c1c2ccccc2nc2n1CCc1c-2[nH]c2ccccc12 [Compound 6] | significant induction | reduction/inhibition | reduction/inhibition | significant induction | did not affect cell viability | inhibited release of CCL2 | inhibited release of IL-8 | inhibited release of IL-2 | inhibited
2 | CC(C)c1c(O)cc(/C=C/c2ccccc2)cc1O [tapiranof, tapinarof, reference compound] | – | – | – | – | inhibition of cell viability at higher concentrations | inhibited release of CCL2 | inhibited release of IL-8 | inhibited release of IL-2 | inhibited
